In a melting point compilation (Tetko et al.; mined from patent text by program, amines drawn as free bases though some values may be those of a salt) one finds melting point data, which are given here for 88 compounds.

Molecules are shown by their SMILES.

A word on the melting point: it is the temperature of the solid-liquid transition.

The compound `Nc1nn2cc(-c3ccc([N+](=O)[O-])o3)nc2s1` registered a melting point of 257 to 258 °C.

For the compound `OCCCn1c(-c2c(Cl)cccc2Cl)nc(-c2ccncc2)c1-c1ccc(Cl)cc1`, the melting point is 233 to 235 °C.

Compound `O=C1CCC(=O)C1C(=O)c1ccc(Cl)cc1Cl` showed a melting point of 109 to 113 °C.

`COC(=O)c1ccc2ccc(OC)cc2c1O` came in with a melting point of 80 to 83 °C.

The compound `S=C1Nc2ccc(Cl)cc2Nc2ccccc21` gave a melting point of 274 to 275 °C.

With `Nc1c(Cl)cc(C(O)CNCCCCCCOCCCc2ccc(CO)cc2)cc1Cl` (stereo not drawn), the melting point fell in the range of 56 to 59 °C.

In turn, `CN(Cc1ccc(S(C)(=O)=O)s1)C(=O)C12CC3CC(CC(C3)C1)C2` gave a melting point of 114 to 116 °C.

The compound `CCN1C(=O)CCCc2cc(Nc3ncc(Cl)c(N[C@@H]4CCCC[C@H]4NS(C)(=O)=O)n3)c(OC)cc21` displayed a melting point of 120 to 128 °C.

`CCOC(=O)CC(NC(=O)c1ccc(OC)cc1)C(=O)c1ccco1` (stereo not drawn) came in with a melting point of 104 to 106 °C.

On to `O=C1c2ccc(-n3ncc4ccccc43)cc2CCN1CCN1CCCC1`, for which the melting point is 185 to 186 °C.

`N#CC(Cc1c(Cl)cccc1Cl)C(=O)O` (stereo not drawn) yielded a melting point of 106 to 108 °C.

As for `Cc1oc(-c2ccccc2)nc1COc1ccc(CON=C(CCC(=O)O)c2ccco2)cc1`, the melting point was in the range of 124 to 125 °C.

`COc1cc2c(cc1OC)CN(CCCc1ccc(NC(=O)c3nc4cc(C)c(C)cc4nc3OC)cc1)CC2`: the melting point lay within 164 to 166 °C.

For the compound `Cc1ccc(-c2ccccc2C(=O)NC(C)C#N)cc1` (stereo not drawn), the melting point fell in the range of 102 to 104 °C.

`C[C@H](NC(=O)c1c(F)cccc1[N+](=O)[O-])C(=O)O` displayed a melting point of 142 to 144 °C.

The compound `Cc1cc(O)ccc1-n1cc(C(=O)O)c(=O)cc1C=NN1CCOCC1` showed a melting point of 267 to 268 °C.

With `O=C(C=CCC(Nc1cc(Cl)cc(Cl)c1I)C(=O)OCc1ccccc1)Nc1ccccc1` (stereo not drawn), the melting point was in the range of 146 to 148 °C.

For `Cc1onc(-c2ccccc2)c1-c1ccc(S(=O)(=O)NC(=O)CN)cc1`, the melting point lay within 231 to 235 °C.

On to `O=C1NC2CCC(=O)N2[C@H]1Cc1ccccc1` (stereo partly drawn), for which the melting point fell in the range of 141 to 145 °C.

In turn, `CCCSCc1cc2oc(S(N)(=O)=O)cc2cn1` showed a melting point of 171 to 172 °C.

In turn, `CCC(=O)Oc1cc(C(C)C)ccc1C1(OC(=O)CC)C(=O)c2ccccc2C1=O` came in with a melting point of 123 to 125 °C.

As to `CC(C)Nc1cccnc1N1CCN(C(=O)c2cc3cc(NC(=O)N4CCN(C)CC4)ccc3[nH]2)CC1`, the melting point is 200 °C.

In turn, `CN(C)C(=O)CCc1ccc2c(c1)nc(N)c1nc(CO)n(CC(C)(C)O)c12` returned a melting point of 228 to 230 °C.

In turn, `CCC1Oc2ccc(C(C)C(=O)O)cc2C(=O)C1C` (stereo not drawn) returned a melting point of 114 to 115 °C.

The compound `CCOC(=O)c1ccc2nc(CC3CCN(c4ccc(Cl)nn4)CC3)sc2c1` returned a melting point of 158 °C.

`CCCCc1ccc(CCCCSCc2cccc(/C=C/c3cccc(NC(=O)CC(CC)(CC)C(=O)O)c3)n2)cc1` gave a melting point of 150 to 151 °C.

`Cc1nc2c(-c3cccc(N4CCN(CCO)CC4)c3)cnn2c(N)c1-c1cccc(Cl)c1` showed a melting point of 108 to 116 °C.

Regarding `Cc1cc([N+](=O)[O-])ccc1-c1ccc(-c2ccc([N+](=O)[O-])cc2C)o1`, the melting point is 242 to 243 °C.

For the compound `Cc1nc(-c2ccc(C(F)(F)F)cc2)oc1CSc1ccc(CC(=O)O)cc1`, the melting point fell in the range of 135 to 136 °C.

Consider `O=C(CNc1ccc2[nH]ncc2c1)N1CCC(Cc2ccc(F)cc2)CC1`, for which the melting point fell in the range of 113 to 114 °C.

In turn, `CC(=O)NC[C@H]1CN(c2ccc(N3CCC(C#N)(Nc4ccc(C#N)cc4)CC3)c(F)c2)C(=O)O1` had a melting point of 210 to 212 °C.

As for `COCC1CC(c2ccc3ccccc3c2C#N)=NO1` (stereo not drawn), the melting point lay within 110 to 111 °C.

Consider `O=c1[nH]c(=O)c2cc(S(=O)(=O)O)ccc2[nH]1`, for which the melting point is more than 300 °C.

In turn, `CCCc1nc2c(N)nc3cc(O)ccc3c2n1CC(C)C` had a melting point of more than 265 °C.

For `CC(=O)OC1CSC(Oc2ccc(-c3ccc(C#N)nc3)nc2)C(OC(C)=O)C1OC(C)=O` (stereo not drawn), the melting point is 247 °C.

Take `COc1ccc2c(c1)N(CC#N)CCO2`: the melting point was in the range of 73 to 74 °C.

The compound `O=C(O)c1ccccc1Nc1ccc(CCCc2ccc([N+](=O)[O-])cc2)cc1` showed a melting point of 150 to 153 °C.

Regarding `O=C1C2=C(NC3(OCCO3)C(c3ccccc3)=N2)c2ccccc21`, the melting point was 296 °C.

`Fc1cccc(F)c1CCNC(=S)Nc1ccccn1`: the melting point was in the range of 157 to 160 °C.

`Cn1c(SSc2c(C(=O)Nc3ccccc3)c3cc(O)ccc3n2C)c(C(=O)Nc2ccccc2)c2cc(O)ccc21` returned a melting point of 185 to 187 °C.

`CN1CCN(c2cc([N+](=O)[O-])ccc2Cl)CC1` came in with a melting point of 63 to 64 °C.

Compound `N#Cc1c(-c2cccc(C(=O)N3CCOCC3)c2)cc(-c2ccccc2O)nc1NC(=O)c1cccs1` yielded a melting point of 253 to 254 °C.

Compound `O=C1C2CCCN2S(=O)(=O)N1CSc1nnnn1-c1ccccc1` (stereo not drawn) showed a melting point of 99.5 to 100 °C.

As to `CCOC(=O)c1cn(C(C)(C)C)c2nc(SCC)c(F)cc2c1=O`, the melting point lay within 159 to 160 °C.

`CCOC(=O)C(C)Oc1ccc(Oc2nnc3cc(Br)ccc3n2)cc1` (stereo not drawn) had a melting point of 104 °C.

With `COc1ccc(OCC#CCCC(N)N2C(=O)c3ccccc3C2=O)cc1` (stereo not drawn), the melting point was in the range of 51 to 53 °C.

Turning to `CCCCCCSc1ncnc2c1ncn2C1CC(F)C(CO)O1` (stereo not drawn), the melting point is 46 to 49 °C.

Turning to `COC(=O)Cc1ccc(S(=O)(=O)c2ccc(Cl)cc2)cc1`, the melting point lay in the range of 78 to 80 °C.

Compound `CCC(C)COc1ccc(-c2ccc(O)c(Br)c2)cc1` (stereo not drawn) displayed a melting point of 49.4 °C.

`C=C(c1ccc(N(C)C)cc1)c1ccc(N2CCCC2)cc1` registered a melting point of 149 to 150 °C.

`O=C1C=C(NC(=O)C(=O)c2cn(Cc3cccc(Cl)c3)c3ccccc23)CO1` gave a melting point of 268 to 270 °C.

Regarding `CCCOC(=O)C(=O)Nc1ccccn1`, the melting point lay in the range of 56 to 59 °C.

`COc1cc(I)c(O)c(C=O)c1`: the melting point was 103 to 105 °C.

`CNC(=O)C(Cc1ccc(OC)cc1)NC(=O)C(C)(CC(C)C)c1ccc(Cl)cc1S` (stereo not drawn): the melting point was in the range of 174 to 178 °C.

As for `O=C(Nc1ccc[nH]c1=O)c1ccccc1F`, the melting point came to 223 °C.

In turn, `OC[C@H]1CC[C@H](c2ccc(F)cc2)CC1` showed a melting point of 65 to 70 °C.

Regarding `CC(=O)OCOC(=O)COC(=C1C(=O)N(C(N)=O)c2cc(Cl)c(F)cc21)c1cccs1`, the melting point was 176 to 177 °C.

Consider `N#CC1CN(c2c(F)cc3c(=O)c(C(=O)O)cn(C4CC4)c3c2F)C1`, for which the melting point is more than 325 °C.

`Cc1csc(Cl)c1NC(=S)Nc1cscc1N` yielded a melting point of 132 to 135 °C.

In turn, `N#CCc1cc(Cl)nc(N)n1` returned a melting point of 110 to 115 °C.

Take `CCCCCCOc1ccc(NC(=O)c2cnc(C(=O)OC)c(OC)c2)cc1`: the melting point lay in the range of 118 to 119 °C.

For `CCOC(=O)c1cn(C2CC2)c2c(F)c(CCc3cc(Cc4cnc(N)nc4N)cc(OC)c3OC)c(F)cc2c1=O`, the melting point lay within 218 to 220 °C.

`O=C(CN1CCOCC1)Nc1nc2c(Oc3cc(-c4ccc(C(F)(F)F)cc4)ncn3)cccc2s1`: the melting point was in the range of 178 to 182 °C.

`CCOC(=O)NC(C)CCC1(O)c2ccccc2CCc2c(C)cccc21` (stereo not drawn): the melting point was 132 to 134 °C.

`CC(O)c1ccc2nc(NC(=O)c3ccc(C(C)(C)C)cc3)cn2c1` (stereo not drawn) registered a melting point of 249 to 250 °C.

In turn, `CC(=O)CC(=O)Nc1cccc(C(F)(F)F)c1` had a melting point of 109 to 110 °C.

Compound `O=C1Nc2ccccc2N(C(=O)N2CCCC(CCCN3CCCCC3)C2)c2ncccc21` (stereo not drawn) showed a melting point of 166 to 167 °C.

`CCNC(=NC#N)NCCN(CC1CCc2ccccc2O1)C(=O)OC(C)(C)C` (stereo not drawn) had a melting point of 115 °C.

In turn, `CN(C)CCNS(=O)(=O)c1cccc(NC(=O)c2cnn3c(C(F)(F)F)cc(-c4ccc(C(F)(F)F)cc4)nc23)c1` returned a melting point of 224 °C.

As to `Cn1c(C(N)=O)c(-c2ccc(F)cc2)c2ncccc2c1=O`, the melting point lay in the range of 300 to 301 °C.

Consider `NNC1=Nc2ccc(I)cc2C(c2ccccc2F)=NC1`, for which the melting point was 179 to 181 °C.

As to `Oc1c2c(nn1-c1ccccn1)CCCc1ccccc1-2`, the melting point is 80 to 81 °C.

For the compound `Cc1ccc(S(=O)(=O)NCC(CC(=O)Nc2ccc(C(=O)O)cc2)c2ccc(Cl)cc2)cc1` (stereo not drawn), the melting point is 250 to 252 °C.

Compound `O=C(O)c1cccc2c1CCc1ccc(F)cc1S2` returned a melting point of 209 to 211 °C.

In turn, `COc1ccc(-c2c(Cl)c(CN3C(=O)CCC3=O)nc3sc4c(c23)CCN(C(=O)C(F)(F)F)C4)cc1` came in with a melting point of 250 to 252 °C.

The compound `COc1ccc(C(=O)Nc2ccccc2)cc1NS(=O)(=O)c1cccc([N+](=O)[O-])c1` yielded a melting point of 208 to 210 °C.

`Cc1cc(Cl)ccc1-n1c(CF)nc2ccc(N)cc2c1=O` gave a melting point of 191 to 193 °C.

With `NC(=O)C1Cc2cc(F)ccc2N1` (stereo not drawn), the melting point lay within 197 to 199 °C.

Turning to `CC(C)Cn1c(=O)[nH]c(=O)c2nccnc21`, the melting point is 200 to 201 °C.

For `CC12CCC3C(CCC4CC(O)CCC43C)C1CC=C2c1cccnc1` (stereo not drawn), the melting point was 198 to 199 °C.

For the compound `COc1ccc(-c2ccc3c(c2)C(C)(C)CCC3(C)C)cc1-c1ccc(C(=O)O)cc1`, the melting point was 148 to 152 °C.

For the compound `CCOC(=O)COCc1nnc(S)s1`, the melting point lay within 80 to 82 °C.

`CCOC(=O)N1CCC(=C2c3ccc(Cl)cc3OCc3cc([N+](=O)[O-])cnc32)CC1` came in with a melting point of 192 to 193 °C.

Regarding `COc1ccc2c(Cc3ccco3)nnc(-c3ccccc3)c2c1`, the melting point was 128 to 129 °C.

For `Fc1cc(CNC(=S)NCC(F)(F)F)ccc1OCC(F)(F)F`, the melting point fell in the range of 88 to 90 °C.

Regarding `CCOC(=O)c1ccc(CCc2cnc3[nH]c(N)nc(N)c2-3)cc1`, the melting point fell in the range of 202 to 204 °C.

For the compound `O=C1CCCc2cc(S(=O)(=O)c3ccccc3)ccc21`, the melting point was found to be 121 °C.

For `CCCC(=O)N1CCC(C(=O)OC2c3ccccc3C(=O)N2c2ccc3ccc(Cl)nc3n2)CC1` (stereo not drawn), the melting point came out at 165 °C.
